Experimental data taken from ChEMBL document CHEMBL5038606 (J Med Chem, 2022).
In brackets after ≈: the same amount, converted by molar mass. Activity calls are given as the source filed them. The calls are words filed in the database; no cut-off is given here.

Assays:
Coagulation factor XI = Coagulation factor XI (Homo sapiens, UniProt P03951); experiment: Binding affinity to human coagulation factor 11a using L-Pyroglutamyl-L-prolyl-L-arginine p-Nitroaniline as substrate assessed as inhibition constant measured upto 120 mins by spectrophotometric analysis
Coagulation factor XI, sequence (P03951 19-387 limits assumed): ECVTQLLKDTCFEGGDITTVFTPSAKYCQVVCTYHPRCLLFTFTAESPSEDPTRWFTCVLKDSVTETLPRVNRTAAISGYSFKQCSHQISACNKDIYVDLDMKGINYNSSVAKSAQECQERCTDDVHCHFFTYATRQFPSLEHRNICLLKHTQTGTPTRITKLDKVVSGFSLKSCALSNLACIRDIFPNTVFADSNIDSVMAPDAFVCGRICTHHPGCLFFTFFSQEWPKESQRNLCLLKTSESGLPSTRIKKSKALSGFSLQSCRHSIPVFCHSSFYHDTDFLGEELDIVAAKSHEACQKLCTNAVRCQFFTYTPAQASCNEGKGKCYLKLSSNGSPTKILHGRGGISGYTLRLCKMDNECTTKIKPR
Coagulation factor XI, sequence (P03951 388-625 limits assumed): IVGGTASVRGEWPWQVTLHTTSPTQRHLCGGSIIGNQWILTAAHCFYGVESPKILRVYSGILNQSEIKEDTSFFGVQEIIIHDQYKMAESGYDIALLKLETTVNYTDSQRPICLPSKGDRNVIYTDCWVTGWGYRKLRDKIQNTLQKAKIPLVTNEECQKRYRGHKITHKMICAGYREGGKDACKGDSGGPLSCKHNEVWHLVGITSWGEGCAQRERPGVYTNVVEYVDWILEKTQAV

Plasma = experiment: Anticoagulant activity in human plasma assessed as activated partial thromboplastin time; type: functional
[1] = Metabolic stability in human liver microsomes assessed as half life; type: ADME, Microsome
[2] = Oral bioavailability in Sprague-Dawley rat at 1.10 mg/kg; type: ADME, organism-based; details: in vivo, dose 1.1 mg/kg
[3] = Apparent permeability across apical to basolateral side in human Caco2 cells; type: ADME, cell-based; details: Caco-2, read-out: permeability
[4] = Clearance in Sprague-Dawley rat at 1.10 mg/kg, po or 0.55 mg/kg, iv; type: ADME, organism-based; details: in vivo, dose 1.1 mg/kg
[5] = Half life in Sprague-Dawley rat at 1.10 mg/kg, po or 0.55 mg/kg, iv; type: ADME, organism-based; details: in vivo, dose 1.1 mg/kg
[6] = Volume of distribution at steady state in Sprague-Dawley rat at 1.10 mg/kg, po or 0.55 mg/kg, iv; type: ADME, organism-based; details: in vivo, dose 1.1 mg/kg, read-out: Vdss
[7] = Metabolic stability in Sprague-Dawley rat liver microsomes assessed as half life; type: ADME, Microsome; design: dose or concentration left out as unconfirmed
[8] = Protein binding in Sprague-Dawley rat plasma assessed as bound fraction; type: ADME, cell-free; design: dose or concentration left out as unconfirmed
[9] = AUC in Sprague-Dawley rat at 1.10 mg/kg, po; type: ADME, organism-based; design: dose 1.1 mg/kg; details: in vivo, 1.1 mg/kg
Chymotrypsin = Chymotrypsin (Homo sapiens, UniProt Q99895+P17538+P40313+Q6GPI1); experiment: Binding affinity to human chymotrypsin assessed as inhibition constant using 3-Carbomethoxypropionyl-L-arginyl-Lprolyl-L-tyrosine p-Nitroaniline as substrate measured upto 120 mins by spectrophotometric analysis; type: protein assay
[10] = Fraction unbound in human plasma; type: ADME, cell-free
[11] = Clearance in cynomolgus monkey at 1.50 mg/kg, po or 0.50 mg/kg, iv; type: ADME, organism-based, Macaca fascicularis; details: in vivo, dose 1.5 mg/kg
[12] = Volume of distribution at steady state in cynomolgus monkey at 1.50 mg/kg, po or 0.50 mg/kg, iv; type: ADME, organism-based, Macaca fascicularis; details: in vivo, dose 1.5 mg/kg, read-out: Vdss
[13] = Protein binding in cynomolgus monkey plasma; type: ADME, cell-free, Macaca fascicularis; details: read-out: PPB (converted)
[14] = Clearance in Sprague-Dawley rat at 1.04 mg/kg, po or 0.52 mg/kg, iv; type: ADME, organism-based; details: in vivo
[15] = Half life in Sprague-Dawley rat at 1.04 mg/kg, po or 0.52 mg/kg, iv; type: ADME, organism-based; details: in vivo
[16] = Volume of distribution at steady state in Sprague-Dawley rat at 1.04 mg/kg, po or 0.52 mg/kg, iv; type: ADME, organism-based; details: in vivo, read-out: Vdss
Homo sapiens [17] = species on record: Homo sapiens; experiment: Inhibition of Phosphodiesterase (unknown origin) at 16 to 94 ug/ml; details: dose 16-94 µg/ml
Homo sapiens [18] = species on record: Homo sapiens; experiment: Inhibition of Monoamine oxidase (unknown origin) at 16 to 94 ug/ml; details: dose 16-94 µg/ml
[19] = biological target: Acetylcholinesterase (Homo sapiens) (UniProt P22303); experiment: Inhibition of acetylcholinesterase (unknown origin) at 16 to 94 ug/ml; details: dose 16-94 µg/ml
[20] = AUC in Sprague-Dawley rat at 1.04 mg/kg, po; type: ADME, organism-based; design: dose 1.04 mg/kg; details: in vivo
[21] = Oral bioavailability in Sprague-Dawley rat at 1.04 mg/kg; type: ADME, organism-based; details: in vivo
[22] = Half life in cynomolgus monkey at 1.50 mg/kg, po or 0.50 mg/kg, iv; type: ADME, organism-based, Macaca fascicularis; details: in vivo, dose 1.5 mg/kg
[23] = Metabolic stability in cynomolgus monkey liver microsomes assessed as half life; type: ADME, Macaca fascicularis, Microsome; design: dose or concentration left out as unconfirmed
[24] = Oral bioavailability in cynomolgus monkey at 1.50 mg/kg; type: ADME, organism-based, Macaca fascicularis; details: in vivo, dose 1.5 mg/kg
[25] = AUC in cynomolgus monkey at 1.50 mg/kg, po; type: ADME, organism-based, Macaca fascicularis; design: dose 1.5 mg/kg; details: in vivo, 1.5 mg/kg
[26] = Aqueous solubility of the compound at pH 6.5; type: physicochemical; details: aqueous medium
[27] = Aqueous solubility of the compound at pH 1.0; type: physicochemical; details: aqueous medium
[28] = Fraction unbound in Sprague-Dawley rat plasma; type: ADME, cell-free
Coagulation factor VII = Coagulation factor VII (Homo sapiens, UniProt P08709); experiment: Binding affinity to recombinant human coagulation factor 7a assessed as inhibition constant using N-alpha-Benzyloxycarbonyl-D-arginyl-glycyl-Larginine p-Nitroaniline as substrate measured upto 120 mins by coupled enzyme assay
Coagulation factor VII, sequence (P08709 61-212 limits assumed): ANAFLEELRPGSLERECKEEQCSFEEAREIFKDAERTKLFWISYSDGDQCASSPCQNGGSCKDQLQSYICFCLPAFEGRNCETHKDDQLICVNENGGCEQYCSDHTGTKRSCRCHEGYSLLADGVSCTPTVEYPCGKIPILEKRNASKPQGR
Coagulation factor VII, sequence (P08709 213-466 limits assumed): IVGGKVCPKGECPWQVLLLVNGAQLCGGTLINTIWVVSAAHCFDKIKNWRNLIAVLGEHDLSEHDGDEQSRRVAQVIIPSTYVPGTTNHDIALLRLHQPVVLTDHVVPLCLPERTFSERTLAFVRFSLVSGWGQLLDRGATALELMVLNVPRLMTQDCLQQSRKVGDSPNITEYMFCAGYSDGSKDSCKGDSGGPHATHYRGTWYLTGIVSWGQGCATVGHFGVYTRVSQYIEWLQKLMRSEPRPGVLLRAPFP

Coagulation factor IX = Coagulation factor IX (Homo sapiens, UniProt P00740); experiment: Binding affinity to human coagulation factor 9a assessed as inhibition constant using Methylsulfonyl-D-cyclohexylglycyl-glycylarginine 7-amino-4-methylcoumarin as substrate measured upto 120 mins by spectrofluorometric analysis
Coagulation factor IX, sequence (P00740 47-191 limits assumed): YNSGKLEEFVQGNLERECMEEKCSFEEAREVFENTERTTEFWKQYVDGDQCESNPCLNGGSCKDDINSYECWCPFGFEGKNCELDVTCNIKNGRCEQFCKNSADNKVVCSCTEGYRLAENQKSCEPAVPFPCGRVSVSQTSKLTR
Coagulation factor IX, sequence (P00740 227-461 limits assumed): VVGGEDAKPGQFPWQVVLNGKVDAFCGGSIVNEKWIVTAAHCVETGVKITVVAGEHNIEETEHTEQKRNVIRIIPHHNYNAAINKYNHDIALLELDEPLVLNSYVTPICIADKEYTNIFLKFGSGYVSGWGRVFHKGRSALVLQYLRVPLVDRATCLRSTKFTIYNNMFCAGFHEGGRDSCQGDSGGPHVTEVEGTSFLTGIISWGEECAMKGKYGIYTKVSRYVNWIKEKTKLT

Coagulation factor X = Coagulation factor X (Homo sapiens, UniProt P00742); experiment: Binding affinity to human coagulation factor 10a assessed as inhibition constant using N-Benzoyl-L-isoleucyl-L-glutamyl-glycyl-Larginine p-Nitroaniline and its gamma glutamyl methyl ester as substrate measured upto 120 mins by spectrophotometric analysis
Coagulation factor X, sequence (P00742 41-179 limits assumed): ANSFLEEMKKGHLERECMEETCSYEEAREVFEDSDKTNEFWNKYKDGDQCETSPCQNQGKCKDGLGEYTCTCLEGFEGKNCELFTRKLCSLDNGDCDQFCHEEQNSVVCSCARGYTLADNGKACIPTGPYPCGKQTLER
Coagulation factor X, sequence (P00742 235-488 limits assumed): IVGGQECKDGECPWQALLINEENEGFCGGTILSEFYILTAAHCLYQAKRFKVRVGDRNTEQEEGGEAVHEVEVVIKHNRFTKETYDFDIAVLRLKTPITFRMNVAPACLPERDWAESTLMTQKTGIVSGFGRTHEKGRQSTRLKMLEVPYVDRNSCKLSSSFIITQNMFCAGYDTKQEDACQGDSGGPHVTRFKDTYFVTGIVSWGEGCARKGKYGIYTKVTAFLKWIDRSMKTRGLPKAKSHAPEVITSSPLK

Coagulation factor XII = Coagulation factor XII (Homo sapiens, UniProt P00748); experiment: Binding affinity to human coagulation factor 12a assessed as inhibition constant using H-D-Cyclohexylalanyl-glycyl-arginyl p-Nitroaniline as substrate measured upto 120 mins by spectrophotometric analysis
Coagulation factor XII, sequence (P00748 20-372 limits assumed): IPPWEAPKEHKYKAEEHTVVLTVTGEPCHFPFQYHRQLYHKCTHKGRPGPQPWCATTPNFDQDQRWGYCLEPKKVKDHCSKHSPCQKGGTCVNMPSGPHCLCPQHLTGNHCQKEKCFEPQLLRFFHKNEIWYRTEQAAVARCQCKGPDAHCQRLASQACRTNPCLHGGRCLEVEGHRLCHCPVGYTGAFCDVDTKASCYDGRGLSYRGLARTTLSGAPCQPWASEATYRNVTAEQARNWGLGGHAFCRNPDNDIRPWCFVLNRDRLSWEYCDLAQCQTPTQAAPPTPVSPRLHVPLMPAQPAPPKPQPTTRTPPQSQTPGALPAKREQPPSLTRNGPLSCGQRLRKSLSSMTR
Coagulation factor XII, sequence (P00748 373-615 limits assumed): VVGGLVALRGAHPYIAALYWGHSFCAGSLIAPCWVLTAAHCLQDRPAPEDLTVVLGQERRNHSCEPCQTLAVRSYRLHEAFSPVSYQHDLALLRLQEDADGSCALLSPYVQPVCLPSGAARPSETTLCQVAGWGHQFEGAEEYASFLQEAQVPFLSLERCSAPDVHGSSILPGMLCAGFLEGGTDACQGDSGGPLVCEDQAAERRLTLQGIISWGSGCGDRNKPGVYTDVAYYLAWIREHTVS

Kallikrein-1 = Kallikrein-1 (Homo sapiens, UniProt P06870); experiment: Binding affinity to human tissue kallikrein-1 assessed as inhibition constant using H-D-Valyl-L-leucyl-L-arginine 7-amino-4-trifluoromethylcoumarin as substrate measured upto 120 mins by spectrofluorometric analysis; type: tissue-based
Trypsin = Trypsin (Homo sapiens, UniProt P07477+P07478+P35030); experiment: Binding affinity to human trypsin assessed as inhibition constant using N-Benzoyl-L-isoleucyl-L-glutamyl-glycyl-Larginine p-Nitroaniline and its gamma glutamyl methyl ester as substrate measured upto 120 mins by spectrophotometric analysis; type: protein assay
[29] = biological target: Vitamin K-dependent protein C (Homo sapiens, UniProt P04070); experiment: Binding affinity to human activated protein C assessed as inhibition constant using L-Pyroglutamyl-L-prolyl-L-arginine p-Nitroaniline as substrate measured upto 120 mins by spectrophotometric analysis
Vitamin K-dependent protein C, sequence (P04070 43-197 limits assumed): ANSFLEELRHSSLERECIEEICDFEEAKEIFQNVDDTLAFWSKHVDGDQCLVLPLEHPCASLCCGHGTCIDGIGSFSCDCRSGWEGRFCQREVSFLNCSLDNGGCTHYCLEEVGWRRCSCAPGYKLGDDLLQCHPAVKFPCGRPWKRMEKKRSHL
Vitamin K-dependent protein C, sequence (P04070 212-461 limits assumed): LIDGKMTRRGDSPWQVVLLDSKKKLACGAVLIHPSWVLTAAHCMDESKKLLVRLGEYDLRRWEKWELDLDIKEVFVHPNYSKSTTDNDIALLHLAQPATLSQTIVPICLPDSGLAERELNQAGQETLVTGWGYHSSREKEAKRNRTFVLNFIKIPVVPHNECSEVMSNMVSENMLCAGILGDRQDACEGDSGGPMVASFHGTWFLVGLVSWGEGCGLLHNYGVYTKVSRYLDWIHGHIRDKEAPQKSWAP

Plasminogen = Plasminogen (Homo sapiens, UniProt P00747); experiment: Binding affinity to human plasmin assessed as inhibition constant using H-D-Valyl-L-leucyl-L-lysine p-Nitroaniline as substrate measured upto 120 mins by spectrophotometric analysis
Plasminogen, sequence (P00747 97-580 limits assumed): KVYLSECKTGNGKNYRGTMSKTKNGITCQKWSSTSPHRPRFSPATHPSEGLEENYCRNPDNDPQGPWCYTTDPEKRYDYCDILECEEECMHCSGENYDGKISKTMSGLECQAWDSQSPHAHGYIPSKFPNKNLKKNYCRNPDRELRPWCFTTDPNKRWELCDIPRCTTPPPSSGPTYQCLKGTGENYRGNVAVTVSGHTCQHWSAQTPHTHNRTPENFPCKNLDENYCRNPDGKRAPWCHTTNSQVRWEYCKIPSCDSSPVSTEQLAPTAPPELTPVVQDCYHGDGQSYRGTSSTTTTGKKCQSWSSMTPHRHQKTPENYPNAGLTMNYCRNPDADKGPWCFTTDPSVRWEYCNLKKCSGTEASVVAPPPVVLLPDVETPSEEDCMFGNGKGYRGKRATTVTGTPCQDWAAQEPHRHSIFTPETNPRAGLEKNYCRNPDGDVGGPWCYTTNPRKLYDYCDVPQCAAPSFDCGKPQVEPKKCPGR
Plasminogen, sequence (P00747 581-810 limits assumed): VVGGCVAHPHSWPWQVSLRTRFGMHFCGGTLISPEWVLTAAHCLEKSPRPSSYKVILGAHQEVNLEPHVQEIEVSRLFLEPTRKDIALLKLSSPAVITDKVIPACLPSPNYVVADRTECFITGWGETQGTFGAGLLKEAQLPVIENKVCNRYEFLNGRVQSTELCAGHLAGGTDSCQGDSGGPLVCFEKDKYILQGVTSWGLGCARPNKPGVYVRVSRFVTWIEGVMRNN

[30] = biological target: Tissue-type plasminogen activator (Homo sapiens, UniProt P00750); experiment: Binding affinity to human tissue type plasminogen assessed as inhibition constant using Methanesulfonyl-D-Cyclohexylalanyl-glycylarginine p-Nitroaniline as substrate measured upto 120 mins by spectrophotometric analysis
[31] = biological target: Urokinase-type plasminogen activator (Homo sapiens, UniProt P00749); experiment: Binding affinity to human urokinase assessed as inhibition constant using L-Pyroglutamyl-glycyl-L-arginine p-Nitroaniline as substrate upto 120 mins by spectrophotometric analysis
Neutrophil elastase = Neutrophil elastase (Homo sapiens, UniProt P08246); experiment: Binding affinity to human neutrophil elastase assessed as inhibition constant using Methoxysuccinyl-L-alanyl-L-alanyl-L-prolylL-valine p-Nitroaniline as substrate measured upto 120 mins by spectrophotometric analysis
Neutrophil elastase, sequence (P08246 whole entry): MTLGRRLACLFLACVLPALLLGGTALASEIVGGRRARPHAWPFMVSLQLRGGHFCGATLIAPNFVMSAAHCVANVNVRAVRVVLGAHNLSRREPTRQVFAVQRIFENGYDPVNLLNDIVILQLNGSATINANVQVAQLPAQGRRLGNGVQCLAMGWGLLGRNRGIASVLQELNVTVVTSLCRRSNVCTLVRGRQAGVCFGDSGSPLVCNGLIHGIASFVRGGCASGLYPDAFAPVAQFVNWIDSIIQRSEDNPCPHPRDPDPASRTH

Cathepsin G = Cathepsin G (Homo sapiens, UniProt P08311); experiment: Binding affinity to human neutrophil cathepsin G assessed as inhibition constant using Succinyl-L-alanyl-L-alanyl-L-prolyl-Lphenylalanine p-Nitroaniline as substrate measured upto 120 mins by spectrophotometric analysis
Cathepsin G, sequence (P08311 whole entry): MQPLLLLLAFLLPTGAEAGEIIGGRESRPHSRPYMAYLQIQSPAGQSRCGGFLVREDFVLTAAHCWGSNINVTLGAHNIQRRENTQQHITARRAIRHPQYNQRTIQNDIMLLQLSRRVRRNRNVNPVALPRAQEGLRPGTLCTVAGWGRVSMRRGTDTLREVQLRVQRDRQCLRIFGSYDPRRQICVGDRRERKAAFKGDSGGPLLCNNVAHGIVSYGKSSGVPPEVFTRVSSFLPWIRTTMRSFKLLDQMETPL

Myeloblastin = Myeloblastin (Homo sapiens, UniProt P24158); experiment: Binding affinity to human neutrophil proteinase 3 assessed as inhibition constant using Methoxysuccinyl-L-alanyl-L-alanyl-L-prolylL-valine p-Nitroaniline as substrate measured upto 120 mins by spectrophotometric analysis
Myeloblastin, sequence (P24158 whole entry): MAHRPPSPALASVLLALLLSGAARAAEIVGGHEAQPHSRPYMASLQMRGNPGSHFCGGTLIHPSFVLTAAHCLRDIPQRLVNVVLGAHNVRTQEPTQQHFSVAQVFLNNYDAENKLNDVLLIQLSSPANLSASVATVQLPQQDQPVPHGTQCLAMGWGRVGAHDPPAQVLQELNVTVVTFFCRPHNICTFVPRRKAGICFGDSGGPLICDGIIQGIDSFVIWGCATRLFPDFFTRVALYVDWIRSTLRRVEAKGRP

Chymase = Chymase (Homo sapiens, UniProt P23946); experiment: Binding affinity to human mast cell chymase assessed as inhibition constant using Succinyl-L-alanyl-L-alanyl-L-prolyl-L phenylalanine p-Nitroaniline as substrate measured upto 120 mins by spectrophotometric analysis
Chymase, sequence (P23946 whole entry, the tested form may be a part): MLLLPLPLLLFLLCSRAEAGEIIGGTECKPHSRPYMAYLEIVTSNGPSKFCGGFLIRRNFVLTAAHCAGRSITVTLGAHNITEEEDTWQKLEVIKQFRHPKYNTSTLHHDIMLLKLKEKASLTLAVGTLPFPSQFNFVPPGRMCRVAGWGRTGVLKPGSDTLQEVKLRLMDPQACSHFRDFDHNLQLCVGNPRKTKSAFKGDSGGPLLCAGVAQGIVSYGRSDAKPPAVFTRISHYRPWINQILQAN

Oryctolagus cuniculus = experiment: Antithrombotic activity in New Zealand White rabbit model of electrically-induced carotid artery thrombosis assessed as inhibition of thrombosis formation by measuring increase in bleeding time administered as iv bolus dose and subsequently administered as iv infusion 30 mins prior to injury; type: functional, organism-based

Compound: C[C@@H]1CCC[C@H](N2CCC(c3c(F)ccc(Cl)c3F)=CC2=O)c2cc(ccn2)-c2[nH]ncc2NC1=O
- Ki (Coagulation factor XI): 548 nM

Compound: C[C@@H]1CCC[C@H](N2CCC(c3cc(Cl)ccc3-n3ccnn3)=CC2=O)c2cc(ccn2)-c2c(cnn2C2CCC2)NC1=O
- EC1.5 (Plasma): 3.04 µM
- half-life [1]: 0.1 h

Compound: C[C@@H]1CCC[C@H](N2CCC(c3c(F)ccc(Cl)c3F)=CC2=O)c2cc(ccn2)-c2nn(C)cc2NC1=O
- Ki (Coagulation factor XI): 171 nM

Compound: C[C@@H]1CCC[C@H](n2cnc(-c3cc(Cl)ccc3-n3cc(Cl)nn3)cc2=O)c2cc(ccn2)-c2c(cnn2C)NC1=O
- EC1.5 (Plasma): 0.3 µM
- half-life [1]: 1.93 h

Compound: C[C@@H]1CCC[C@H](N2CCC(c3cc(Cl)ccc3-n3ccnn3)=CC2=O)c2cc(ccn2)-c2c(cnn2CC(F)F)NC1=O
- Ki (Coagulation factor XI): 11 nM
- EC1.5 (Plasma): 1.54 µM
- half-life [1]: 1.27 h

Compound: C[C@@H]1CCC[C@H](N2CCC(c3cc(Cl)ccc3-n3ccnn3)=CC2=O)c2cc(ccn2)-c2c(cnn2C(F)F)NC1=O
- bioavailability [2]: 7%
- EC1.5 (Plasma): 0.45 µM
- half-life [1]: 1.67 h
- Papp A→B [3]: < 1.5 ×10⁻⁶ cm/s
- clearance [4]: 42 mL/min/kg
- half-life [5]: 0.5 h
- Vd [6]: 1.2 L/kg
- half-life [7]: > 2 h
- fraction unbound [8]: 0.249
- AUC [9]: 0.068 µM·h

Compound: C[C@@H]1CCC[C@H](n2cnc(-c3cc(Cl)ccc3-n3cc(Cl)nn3)cc2=O)c2cc(ccn2)-c2c(cnn2C(F)F)NC1=O [MILVEXIAN]
- Ki (Chymotrypsin): 35 nM
- fraction unbound [10]: 0.085
- clearance [11]: 10.3 mL/min/kg
- Vd [12]: 2.2 L/kg
- fraction unbound [13]: 0.109
- EC1.5 (Plasma): 0.5 µM
- half-life [1]: > 2 h
- half-life [7]: > 2 h
- fraction unbound [8]: 0.029
- clearance [14]: 7.1 mL/min/kg
- half-life [15]: 1.4 h
- Vd [16]: 0.9 L/kg
- inhibition (Homo sapiens [17]): inactive
- inhibition (Homo sapiens [18]): inactive
- inhibition [19]: inactive
- AUC [20]: 0.7 µM·h
- bioavailability [21]: 18%
- half-life [22]: 2.7 h
- half-life [23]: 1.38 h
- bioavailability [24]: 32%
- AUC [25]: 1.22 µM·h
- solubility [26]: 6 µg/mL (≈ 9.58 µM)
- solubility [27]: 8 µg/mL (≈ 12.8 µM)
- fraction unbound [28]: 0.029
- Ki (Coagulation factor VII): 1200 nM
- Ki (Coagulation factor IX): > 27000 nM
- Ki (Coagulation factor X): > 13000 nM
- Ki (Coagulation factor XII): > 3000 nM
- Ki (Kallikrein-1): > 11000 nM
- Ki (Trypsin): 720 nM
- Ki [29]: > 21000 nM
- Ki (Plasminogen): 2650 nM
- Ki [30]: 2300 nM
- Ki [31]: 3900 nM
- Ki (Neutrophil elastase): > 8000 nM
- Ki (Cathepsin G): > 20000 nM
- Ki (Myeloblastin): > 12000 nM
- Ki (Chymase): > 13000 nM

Compound: COC(=O)Nc1ccc2c(c1)NC(=O)[C@H](C)CCC[C@H](N1CCC(c3c(F)ccc(Cl)c3F)=CC1=O)c1cc-2ccn1
- EC50 (Oryctolagus cuniculus): 375 nM

Compound: C[C@@H]1CCC[C@H](N2CCC(c3cc(Cl)ccc3-n3cc(Cl)nn3)=CC2=O)c2cc(ccn2)-c2c(cnn2C)NC1=O
- EC1.5 (Plasma): 0.3 µM
- half-life [1]: 1.08 h
